Literature values in patent publication US20100056547A1, “OPHTHALMIC COMPOSITIONS COMPRISING dDC” (ALLERGAN, INC., priority 2005, published 2010).

How the values were obtained:
adenoviral strains = settings: for inhibition of adenoviral strains: Kaneko et al., J. Jpn. Ophthalmol. Soc. 107:196-201 (2003)
viral conjunctivitis = settings: topical ophthalmic administration; Gordon et al., Cornea 15(5): 546, 1996

| SMILES | inhibition of adenoviral strains (adenoviral strains) | EC50 values (ranking among NMSO3, HPMPC, dDC) (adenoviral strains; adenoviral strains, Kaneko et al. 2003) | effectiveness in treating viral conjunctivitis (viral conjunctivitis) |
| --- | --- | --- | --- |
| CCCCCCCCCCCCCCCCCCCCCCOCC(C)(COCCCCCCCCCCCCCCCCCCCCCC)CO[C@]1(C(=O)O)C[C@H](OS(=O)(=O)O)[C@@H](NC(C)=O)[C@H]([C@H](OS(=O)(=O)O)[C@@H](COS(=O)(=O)O)OS(=O)(=O)O)O1 [NMSO3] | inhibited adenoviral strains | lowest | – |
| Nc1ccn(C[C@@H](CO)OCP(=O)(O)O)c(=O)n1 [cidofavir] | – | – | effective |
| Nc1ccn([C@H]2CC[C@@H](CO)O2)c(=O)n1 [dDC, 2′,3′-Dideoxycytidine] | inhibited adenoviral strains | – | – |
| Nc1ccn(C[C@@H](CO)OCP(=O)(O)O)c(=O)n1 [HPMPC] | inhibited adenoviral strains | – | – |
